From PubChem BioAssay (NCI)
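Protocol summary: plate cells (96-well), add compound at 5 concentrations, incubate 48 h, interpolate endpoints linearly. TGI marks complete inhibition of growth.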

Tests used:
Experiment in all cases: growth of human tumour cells (NCI), 48 h
786-0 renal = tested on: 786-0 renal
A549 NSCLC = tested on: A549 NSCLC
ACHN renal = tested on: ACHN renal
BT-549 breast = tested on: BT-549 breast
CAKI-1 renal = tested on: CAKI-1 renal
CCRF-CEM leukemia = tested on: CCRF-CEM leukemia
COLO 205 colon = tested on: COLO 205 colon
DU-145 prostate = tested on: DU-145 prostate
EKVX NSCLC = tested on: EKVX NSCLC
HCC-2998 colon = tested on: HCC-2998 colon
HCT-116 colon = tested on: HCT-116 colon
HCT-15 colon = tested on: HCT-15 colon
HL-60(TB) leukemia = tested on: HL-60(TB) leukemia
HOP-62 NSCLC = tested on: HOP-62 NSCLC
HOP-92 NSCLC = tested on: HOP-92 NSCLC
HT29 colon = tested on: HT29 colon
K-562 leukemia = tested on: K-562 leukemia
KM12 colon = tested on: KM12 colon
LOX IMVI melanoma = tested on: LOX IMVI melanoma
M14 melanoma = tested on: M14 melanoma
MALME-3M melanoma = tested on: MALME-3M melanoma
MCF7 breast = tested on: MCF7 breast
MDA-MB-231 breast = tested on: MDA-MB-231 breast
MDA-MB-435 = tested on: MDA-MB-435
MDA-N = tested on: MDA-N
MOLT-4 leukemia = tested on: MOLT-4 leukemia
NCI-H23 lung = tested on: NCI-H23 lung
NCI-H460 lung = tested on: NCI-H460 lung
NCI/ADR-RES ovarian = tested on: NCI/ADR-RES ovarian
OVCAR-3 ovarian = tested on: OVCAR-3 ovarian
OVCAR-4 ovarian = tested on: OVCAR-4 ovarian
OVCAR-8 ovarian = tested on: OVCAR-8 ovarian
PC-3 prostate = tested on: PC-3 prostate
RPMI-8226 leukemia = tested on: RPMI-8226 leukemia
RXF 393 renal = tested on: RXF 393 renal
SF-268 CNS = tested on: SF-268 CNS
SF-295 CNS = tested on: SF-295 CNS
SK-MEL-2 melanoma = tested on: SK-MEL-2 melanoma
SK-MEL-28 melanoma = tested on: SK-MEL-28 melanoma
SK-MEL-5 melanoma = tested on: SK-MEL-5 melanoma
SN12C renal = tested on: SN12C renal
SNB-19 CNS = tested on: SNB-19 CNS
SNB-75 CNS = tested on: SNB-75 CNS
SR leukemia = tested on: SR leukemia
TK-10 renal = tested on: TK-10 renal
U251 CNS = tested on: U251 CNS
UACC-257 melanoma = tested on: UACC-257 melanoma
UO-31 renal = tested on: UO-31 renal
A498 renal = tested on: A498 renal
HS 578T breast = tested on: HS 578T breast
IGROV1 ovarian = tested on: IGROV1 ovarian
NCI-H226 lung = tested on: NCI-H226 lung
NCI-H522 lung = tested on: NCI-H522 lung
OVCAR-5 ovarian = tested on: OVCAR-5 ovarian
SK-OV-3 ovarian = tested on: SK-OV-3 ovarian
SW-620 colon = tested on: SW-620 colon
UACC-62 melanoma = tested on: UACC-62 melanoma
SF-539 CNS = tested on: SF-539 CNS

CN1CCN(c2n[nH]c(=O)c3c2nnn3Cc2ccccc2)CC1
TGI (786-0 renal): > 100 µM
TGI (A549 NSCLC): > 100 µM
TGI (ACHN renal): > 100 µM
TGI (BT-549 breast): > 100 µM
TGI (CAKI-1 renal): > 100 µM
TGI (CCRF-CEM leukemia): > 100 µM
TGI (COLO 205 colon): > 100 µM
TGI (DU-145 prostate): > 100 µM
TGI (EKVX NSCLC): > 100 µM
TGI (HCC-2998 colon): > 100 µM
TGI (HCT-116 colon): > 100 µM
TGI (HCT-15 colon): > 100 µM
TGI (HL-60(TB) leukemia): > 100 µM
TGI (HOP-62 NSCLC): > 100 µM
TGI (HOP-92 NSCLC): > 100 µM
TGI (HT29 colon): > 100 µM
TGI (K-562 leukemia): > 100 µM
TGI (KM12 colon): > 100 µM
TGI (LOX IMVI melanoma): > 100 µM
TGI (M14 melanoma): > 100 µM
TGI (MALME-3M melanoma): > 100 µM
TGI (MCF7 breast): > 100 µM
TGI (MDA-MB-231 breast): > 100 µM
TGI (MDA-MB-435): > 100 µM
TGI (MDA-N): 40.1 µM
TGI (MOLT-4 leukemia): > 100 µM
TGI (NCI-H23 lung): > 100 µM
TGI (NCI-H460 lung): > 100 µM
TGI (NCI/ADR-RES ovarian): > 100 µM
TGI (OVCAR-3 ovarian): > 100 µM
TGI (OVCAR-4 ovarian): > 100 µM
TGI (OVCAR-8 ovarian): > 100 µM
TGI (PC-3 prostate): 37.1 µM
TGI (RPMI-8226 leukemia): > 100 µM
TGI (RXF 393 renal): > 100 µM
TGI (SF-268 CNS): > 100 µM
TGI (SF-295 CNS): > 100 µM
TGI (SK-MEL-2 melanoma): > 100 µM
TGI (SK-MEL-28 melanoma): > 100 µM
TGI (SK-MEL-5 melanoma): > 100 µM
TGI (SN12C renal): > 100 µM
TGI (SNB-19 CNS): > 100 µM
TGI (SNB-75 CNS): > 100 µM
TGI (SR leukemia): > 100 µM
TGI (TK-10 renal): > 100 µM
TGI (U251 CNS): > 100 µM
TGI (UACC-257 melanoma): > 100 µM
TGI (UO-31 renal): > 100 µM

CCN(CC)c1c(-c2c(OC(C)C)c(=O)c2=O)c(=O)n2ccsc2c1OC(C)=O
TGI (786-0 renal): > 100 µM
TGI (A498 renal): > 100 µM
TGI (ACHN renal): > 100 µM
TGI (BT-549 breast): > 100 µM
TGI (CAKI-1 renal): > 100 µM
TGI (CCRF-CEM leukemia): > 100 µM
TGI (COLO 205 colon): > 100 µM
TGI (DU-145 prostate): > 100 µM
TGI (EKVX NSCLC): > 100 µM
TGI (HCC-2998 colon): > 100 µM
TGI (HCT-116 colon): > 100 µM
TGI (HCT-15 colon): > 100 µM
TGI (HL-60(TB) leukemia): > 100 µM
TGI (HOP-62 NSCLC): > 100 µM
TGI (HOP-92 NSCLC): > 100 µM
TGI (HS 578T breast): > 100 µM
TGI (HT29 colon): > 100 µM
TGI (IGROV1 ovarian): > 100 µM
TGI (K-562 leukemia): > 100 µM
TGI (KM12 colon): > 100 µM
TGI (LOX IMVI melanoma): > 100 µM
TGI (M14 melanoma): > 100 µM
TGI (MALME-3M melanoma): > 100 µM
TGI (MDA-MB-231 breast): > 100 µM
TGI (MDA-MB-435): > 100 µM
TGI (MDA-N): > 100 µM
TGI (MOLT-4 leukemia): > 100 µM
TGI (NCI-H226 lung): > 100 µM
TGI (NCI-H23 lung): > 100 µM
TGI (NCI-H460 lung): > 100 µM
TGI (NCI-H522 lung): > 100 µM
TGI (NCI/ADR-RES ovarian): > 100 µM
TGI (OVCAR-3 ovarian): > 100 µM
TGI (OVCAR-4 ovarian): > 100 µM
TGI (OVCAR-5 ovarian): > 100 µM
TGI (OVCAR-8 ovarian): > 100 µM
TGI (PC-3 prostate): > 100 µM
TGI (RPMI-8226 leukemia): > 100 µM
TGI (SF-268 CNS): > 100 µM
TGI (SF-295 CNS): > 100 µM
TGI (SK-MEL-2 melanoma): > 100 µM
TGI (SK-MEL-28 melanoma): > 100 µM
TGI (SK-MEL-5 melanoma): > 100 µM
TGI (SK-OV-3 ovarian): > 100 µM
TGI (SN12C renal): > 100 µM
TGI (SNB-19 CNS): > 100 µM
TGI (SNB-75 CNS): > 100 µM
TGI (SR leukemia): > 100 µM
TGI (SW-620 colon): > 100 µM
TGI (TK-10 renal): > 100 µM
TGI (U251 CNS): > 100 µM
TGI (UACC-257 melanoma): > 100 µM
TGI (UACC-62 melanoma): > 100 µM
TGI (UO-31 renal): > 100 µM

OC1CCN2Cc3ccccc3N=C12 (configuration not stated)
TGI (786-0 renal): > 100 µM
TGI (A498 renal): > 100 µM
TGI (A549 NSCLC): > 100 µM
TGI (ACHN renal): > 100 µM
TGI (BT-549 breast): > 100 µM
TGI (CAKI-1 renal): > 100 µM
TGI (CCRF-CEM leukemia): > 100 µM
TGI (COLO 205 colon): > 100 µM
TGI (DU-145 prostate): > 100 µM
TGI (EKVX NSCLC): > 100 µM
TGI (HCC-2998 colon): > 100 µM
TGI (HCT-116 colon): > 100 µM
TGI (HCT-15 colon): > 100 µM
TGI (HL-60(TB) leukemia): > 100 µM
TGI (HOP-62 NSCLC): > 100 µM
TGI (HOP-92 NSCLC): > 100 µM
TGI (HS 578T breast): > 100 µM
TGI (HT29 colon): > 100 µM
TGI (K-562 leukemia): > 100 µM
TGI (KM12 colon): > 100 µM
TGI (LOX IMVI melanoma): > 100 µM
TGI (M14 melanoma): > 100 µM
TGI (MALME-3M melanoma): > 100 µM
TGI (MCF7 breast): > 100 µM
TGI (MDA-MB-231 breast): > 100 µM
TGI (MDA-MB-435): > 100 µM
TGI (MDA-N): > 100 µM
TGI (MOLT-4 leukemia): > 100 µM
TGI (NCI-H226 lung): > 100 µM
TGI (NCI-H23 lung): > 100 µM
TGI (NCI-H460 lung): > 100 µM
TGI (NCI/ADR-RES ovarian): > 100 µM
TGI (OVCAR-3 ovarian): > 100 µM
TGI (OVCAR-4 ovarian): > 100 µM
TGI (OVCAR-5 ovarian): > 100 µM
TGI (OVCAR-8 ovarian): > 100 µM
TGI (PC-3 prostate): > 100 µM
TGI (RPMI-8226 leukemia): > 100 µM
TGI (RXF 393 renal): > 100 µM
TGI (SF-268 CNS): > 100 µM
TGI (SF-295 CNS): > 100 µM
TGI (SF-539 CNS): > 100 µM
TGI (SK-MEL-2 melanoma): > 100 µM
TGI (SK-MEL-28 melanoma): > 100 µM
TGI (SK-MEL-5 melanoma): > 100 µM
TGI (SK-OV-3 ovarian): > 100 µM
TGI (SN12C renal): > 100 µM
TGI (SNB-19 CNS): > 100 µM
TGI (SNB-75 CNS): > 100 µM
TGI (SW-620 colon): > 100 µM
TGI (TK-10 renal): > 100 µM
TGI (U251 CNS): > 100 µM
TGI (UACC-257 melanoma): > 100 µM
TGI (UACC-62 melanoma): > 100 µM
TGI (UO-31 renal): > 100 µM
